For the assay, the system named is eczema, seborrheic dermatitis and allergic skin reactions. The assay is described as follows: Applicant's general experiments: compounds applied to the affected skin area alone or before a topical corticosteroid. Type of assay: in vivo, adult patient. The following applies: for effectiveness in alleviating the symptoms: applied alone, with no steroid; for enhancement of effectiveness of the topical corticosteroid: applied to affected area prior to the topical corticosteroid, compared with topical corticosteroid alone; for effectiveness compared with hydrocortisone 2.5% alone: decongestant alone applied before hydrocortisone 0.5%. On the procedure: The experiments were conducted in order to try to treat these conditions as well as to try to enhance the performance of hydrocortisone and other topical corticosteroids in the treatment of these conditions.
With respect to the use of compounds to try to enhance the effectiveness of topical corticosteroids, the experiments involved first applying to the affected area particular compounds and then shortly thereafter applying to the same affected area a topical corticosteroid. For example, compounds that were tried include eye drop solutions, nasal decongestant sprays and other kinds of compounds available over the counter or by prescription. Antihistamine and decongestant combinations were tried as a solution to be applied to the affected area prior to the application of the steroid. In addition, antihistamines alone (preceding the corticosteroid) and decongestants alone (preceding the corticosteroid) were tried. As stated above, antihistamines alone (without the corticosteroid) and decongestants alone (without the corticosteroid) were also tried.
An increase in effectiveness is defined as greater alleviation of the dermatological symptoms of the condition or speedier alleviation of the dermatological symptoms of the condition or both.
That is, the identical experiment was conducted for the same condition but without preceding (or following) the application of the corticosteroid cream with an application of any solution in according with the method of the present invention.

The source of these data is patent publication US20110201582A1, “METHOD AND COMPOSITION FOR TREATMENT OF SKIN CONDITIONS” (priority 2004, published 2011).

Entries after “also recorded” stand apart in the source; their conditions may differ. Where a name gives a salt, the structure may show the parent alone.

With `c1ccc2c(CC3=NCCN3)cccc2c1` [naphazoline HCL], the “effectiveness compared with hydrocortisone 2.5% alone” value was “performs better”. For the setting “HCL”, the “effectiveness in alleviating the symptoms” value is recorded as “works somewhat to alleviate dermatological symptoms, albeit not fantastically; also recorded: mildly effective alleviation” and the “enhancement of effectiveness of the topical corticosteroid” value was “slightly greater than that of a topical corticosteroid alone; also recorded: only mild enhancement of effectiveness”.
Take `CNC[C@H](O)c1cccc(O)c1` [phenylephrine HCL]: the “enhancement of effectiveness of the topical corticosteroid” value was “only mild enhancement of effectiveness” and the “effectiveness compared with hydrocortisone 2.5% alone” value is given as “performs better”. Moreover, the “effectiveness in alleviating the symptoms” value (HCL) is recorded as “works somewhat to alleviate dermatological symptoms, albeit not fantastically; also recorded: mildly effective alleviation”.
